Test results as given in patent US7998933B2, “Process for treating the skin comprising applying to the skin at least one composition comprising at least one N-aminoacylamide” (L'Oreal S.A., priority 2000, dated 2011).

Tests used:
[1] = target: T1, human leukocyte elastase (HLE) (Homo sapiens, UniProt P08246); experiment: in vitro anti-elastase activity, substrate Me-OSAAPV-p-NA, spectrophotometry; format: biochemical
T1 sequence (P08246 30-267): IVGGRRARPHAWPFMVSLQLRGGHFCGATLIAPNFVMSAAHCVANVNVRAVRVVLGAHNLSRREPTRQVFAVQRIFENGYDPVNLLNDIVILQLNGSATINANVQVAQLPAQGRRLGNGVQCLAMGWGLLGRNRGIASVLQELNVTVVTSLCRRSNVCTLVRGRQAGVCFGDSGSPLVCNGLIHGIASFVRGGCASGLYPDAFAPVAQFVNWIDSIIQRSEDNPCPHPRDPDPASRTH
Method: The in vitro anti-elastase activity of compounds according to the invention with respect to human leukocyte elastase (HLE) was determined. […]
The percentage inhibition of the control elastase activity is then determined by spectrophotometry.

[2] = test system: surviving human skin irradiated with UVA (8 J/cm^2); experiment: activity on surviving human skin irradiated with UVA, morphometric analysis of elastic fibres and collagen; format: cell-based; conditions: UVA 8 J/cm^2 once + 5 μl of 0.2% compound every two days, 7 days at 37° C.
Method: The activity of the compound of Example 2 on surviving human skin irradiated with UVA (8 J/cm^2) was evaluated.
Fragments of normal human skin obtained from four different donors are placed in inserts positioned in culture wells. Culture medium supplemented with antibiotics is placed in the bottom of the wells. A passage is carried out by slow diffusion between the two compartments by means of a porous membrane (pore size: 12 μm).
(§1) The culture medium is freshened every three days.
5 μl of the test compound, predissolved at a concentration of 0.2% in ethanol, is added to the skin fragments every two days.
The skins are kept alive for 7 days at 37° C.
The skins are irradiated once at 8 J/cm^2 (Vilbert-Lourmat RMX-3W lamp).
(§2) The elastic fibres are stained blue with (+)-catechin and morphometrically quantified by computer-assisted image analysis. The percentage of average dermal surface area occupied by the elastic fibres is thus evaluated.

[3] = test system: surviving human skin treated with human leukocyte elastase (HLE); experiment: ex vivo activity on fresh sections of human skin treated with HLE for 2 hours, morphometric quantification of elastic fibres; format: cell-based; conditions: 10 μg/ml HLE + 0.1% compound, 2 hours at 20° C.
Method: (§3) The ex vivo activity of the compound of Example 2 was evaluated on surviving human skin treated with human leukocyte elastase (HLE).
Fresh sections of human skin, obtained from 2 different donors, are treated for 2 hours at 20° C. with 20 μl of buffer solution (pH 7.4) optionally comprising 10 μg/ml of HLE and optionally 0.1% of the test compound, optionally predissolved in ethanol.
as §2

[4] = test system: surviving human skin treated with human leukocyte elastase (HLE); experiment: ex vivo activity on human skin fragments kept alive in culture for 10 days with HLE, morphometric quantification of elastic fibres; format: cell-based; conditions: three donors; 0.5 μg/ml HLE + 5 μl of 0.2% compound in ethanol every two days, 10 days at 37° C.; control 7.4%, HLE alone 5.1%
Method: as §3
Fragments of normal human skin obtained from three different donors are placed in inserts positioned in culture wells. Culture medium supplemented with antibiotics is placed in the bottom of the wells. A passage is carried out by slow diffusion between the two compartments by means of a porous membrane (pore size: 12 μm).
as §1
0.5 μg of HLE per ml of culture medium is optionally added to the skin fragments.
5 μl of the test compound, predissolved at a concentration of 0.2% by weight in ethanol, is also added every two days.
The skins are kept alive for 10 days at 37° C.
as §2

[5] = compound concentration 0.1%, HLE 40 milliunits per ml, 37° C., 60 minutes

CCOC(=O)CNC(=O)C(C(C)C)N(Cc1ccccc1)C(=O)CP(=O)(OCC)OCC (centres unmarked) [Compound B, ethyl [2-{benzyl((diethoxyphosphoryl)acetyl]amino}-3-methylbutyrylamino)acetate]
% inhibition of the control elastase activity [1, 5]: 17%

CCOC(=O)CNC(=O)C(C(C)C)N(Cc1ccccc1)C(C)=O (centres unmarked) [Compound D, ethyl [2-(acetylbenzylamino)-3-methylbutyrylamino]acetate]
% inhibition of the control elastase activity [1, 5]: 13%

CC(=O)N(c1cccc(C(F)(F)F)c1)C(C(=O)NCC(=O)O)C(C)C (centres unmarked) [Example 2, {2-[acetyl (3-trifluoromethylphenyl)amino]-3-methylbutyrylamino}acetic acid]
Morphometric analysis of the elastic fibres (superficial dermis) ([2]; untreated 6.75%, UVA alone 3.9%): 6.8%
Morphometric analysis of the collagen (superficial dermis) ([2]; untreated 87%, UVA alone 81%): 92%
inhibition of the elastase activity (in words) [1]: strong inhibition of the elastase activity, even in a small amount
% inhibition of the control elastase activity [1, 5]: 67%
% inhibition of the control elastase activity ([1]; concentration of compound A 0.01%): 53%
% inhibition of the control elastase activity ([1]; concentration of compound A 0.05%): 50%
% inhibition of the control elastase activity ([1]; concentration of compound A 0.1% (concentration series)): 68%
% inhibition of the control elastase activity ([1]; concentration of compound A 0.2%): 68%
% of surface area occupied by the elastic fibres ([3]; Skin 1, control 12.7%, HLE alone 4.85%): 13.95%
% of surface area occupied by the elastic fibres ([3]; Skin 2, control 15.25%, HLE alone 6.85%): 11.85%
% of surface area occupied by the elastic fibres [4]: 7.1%

CC(=O)N(Cc1ccccc1)C(C(=O)NCC(=O)O)C(C)C (centres unmarked) [Compound C, [2-(acetylbenzylamino)-3-methylbutyrylamino]acetic acid]
% inhibition of the control elastase activity [1, 5]: 20%
